Measured values: PubChem BioAssay (NCI)
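Five concentrations, 48 hours, 96-well plates. At the GI50, growth is halved. TGI denotes the concentration required for complete inhibition of growth.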

Legend:
Test in all cases: NCI tumour cell line growth inhibition, 48 h
786-0 renal = test system: 786-0 renal
A498 renal = test system: A498 renal
A549 NSCLC = test system: A549 NSCLC
ACHN renal = test system: ACHN renal
BT-549 breast = test system: BT-549 breast
CAKI-1 renal = test system: CAKI-1 renal
CCRF-CEM leukemia = test system: CCRF-CEM leukemia
COLO 205 colon = test system: COLO 205 colon
DU-145 prostate = test system: DU-145 prostate
EKVX NSCLC = test system: EKVX NSCLC
HCC-2998 colon = test system: HCC-2998 colon
HCT-116 colon = test system: HCT-116 colon
HCT-15 colon = test system: HCT-15 colon
HL-60(TB) leukemia = test system: HL-60(TB) leukemia
HOP-62 NSCLC = test system: HOP-62 NSCLC
HOP-92 NSCLC = test system: HOP-92 NSCLC
HS 578T breast = test system: HS 578T breast
HT29 colon = test system: HT29 colon
IGROV1 ovarian = test system: IGROV1 ovarian
K-562 leukemia = test system: K-562 leukemia
KM12 colon = test system: KM12 colon
LOX IMVI melanoma = test system: LOX IMVI melanoma
M14 melanoma = test system: M14 melanoma
MALME-3M melanoma = test system: MALME-3M melanoma
MCF7 breast = test system: MCF7 breast
MDA-MB-231 breast = test system: MDA-MB-231 breast
MDA-MB-435 = test system: MDA-MB-435
MDA-MB-468 breast = test system: MDA-MB-468 breast
MOLT-4 leukemia = test system: MOLT-4 leukemia
NCI-H226 lung = test system: NCI-H226 lung
NCI-H23 lung = test system: NCI-H23 lung
NCI-H460 lung = test system: NCI-H460 lung
NCI-H522 lung = test system: NCI-H522 lung
OVCAR-3 ovarian = test system: OVCAR-3 ovarian
OVCAR-4 ovarian = test system: OVCAR-4 ovarian
OVCAR-5 ovarian = test system: OVCAR-5 ovarian
OVCAR-8 ovarian = test system: OVCAR-8 ovarian
PC-3 prostate = test system: PC-3 prostate
RPMI-8226 leukemia = test system: RPMI-8226 leukemia
RXF 393 renal = test system: RXF 393 renal
SF-268 CNS = test system: SF-268 CNS
SF-295 CNS = test system: SF-295 CNS
SF-539 CNS = test system: SF-539 CNS
SK-MEL-2 melanoma = test system: SK-MEL-2 melanoma
SK-MEL-28 melanoma = test system: SK-MEL-28 melanoma
SK-MEL-5 melanoma = test system: SK-MEL-5 melanoma
SK-OV-3 ovarian = test system: SK-OV-3 ovarian
SN12C renal = test system: SN12C renal
SNB-19 CNS = test system: SNB-19 CNS
SNB-75 CNS = test system: SNB-75 CNS
SR leukemia = test system: SR leukemia
SW-620 colon = test system: SW-620 colon
T-47D breast = test system: T-47D breast
TK-10 renal = test system: TK-10 renal
U251 CNS = test system: U251 CNS
UACC-257 melanoma = test system: UACC-257 melanoma
UACC-62 melanoma = test system: UACC-62 melanoma
UO-31 renal = test system: UO-31 renal

SMILES: O=C(c1ccc(Cl)cc1)C1[C@H](c2ccccc2Br)[C@@H](c2ccccc2)NC12C(=O)Nc1ccc(Cl)cc12 (stereo partly specified)
- GI50 (786-0 renal): 9.38 µM
- TGI (786-0 renal): 18.8 µM
- GI50 (A498 renal): 9.4 µM
- TGI (A498 renal): 19.3 µM
- GI50 (A549 NSCLC): 9.83 µM
- TGI (A549 NSCLC): 20.2 µM
- GI50 (ACHN renal): 9.94 µM
- TGI (ACHN renal): 18.9 µM
- GI50 (BT-549 breast): 7.87 µM
- TGI (BT-549 breast): 15.7 µM
- GI50 (CAKI-1 renal): 8.96 µM
- TGI (CAKI-1 renal): 17.4 µM
- GI50 (CCRF-CEM leukemia): 13.6 µM
- TGI (CCRF-CEM leukemia): 35.1 µM
- GI50 (COLO 205 colon): 9.34 µM
- TGI (COLO 205 colon): 17.3 µM
- GI50 (DU-145 prostate): 11.1 µM
- TGI (DU-145 prostate): 22.4 µM
- GI50 (EKVX NSCLC): 10.6 µM
- TGI (EKVX NSCLC): 26 µM
- GI50 (HCC-2998 colon): 9.28 µM
- TGI (HCC-2998 colon): 17.4 µM
- GI50 (HCT-116 colon): 9 µM
- TGI (HCT-116 colon): 17.5 µM
- GI50 (HCT-15 colon): 10.2 µM
- TGI (HCT-15 colon): 20 µM
- GI50 (HL-60(TB) leukemia): 13.2 µM
- TGI (HL-60(TB) leukemia): 36.7 µM
- GI50 (HOP-62 NSCLC): 8.65 µM
- TGI (HOP-62 NSCLC): 16.4 µM
- GI50 (HOP-92 NSCLC): 8.37 µM
- TGI (HOP-92 NSCLC): 16.3 µM
- GI50 (HS 578T breast): 11 µM
- TGI (HS 578T breast): 27.1 µM
- GI50 (HT29 colon): 9.35 µM
- TGI (HT29 colon): 18.5 µM
- GI50 (IGROV1 ovarian): 9.73 µM
- TGI (IGROV1 ovarian): 19.1 µM
- GI50 (K-562 leukemia): 18.5 µM
- TGI (K-562 leukemia): 52.8 µM
- GI50 (KM12 colon): 11.5 µM
- TGI (KM12 colon): 25.2 µM
- GI50 (LOX IMVI melanoma): 9.69 µM
- TGI (LOX IMVI melanoma): 19 µM
- GI50 (M14 melanoma): 9.65 µM
- TGI (M14 melanoma): 18.3 µM
- GI50 (MALME-3M melanoma): 8.67 µM
- TGI (MALME-3M melanoma): 16 µM
- GI50 (MCF7 breast): 11.6 µM
- TGI (MCF7 breast): 27.9 µM
- GI50 (MDA-MB-231 breast): 8.98 µM
- TGI (MDA-MB-231 breast): 16.5 µM
- GI50 (MDA-MB-435): 10.4 µM
- TGI (MDA-MB-435): 20.7 µM
- GI50 (MDA-MB-468 breast): 9.09 µM
- TGI (MDA-MB-468 breast): 17.3 µM
- GI50 (MOLT-4 leukemia): 16 µM
- TGI (MOLT-4 leukemia): 52.8 µM
- GI50 (NCI-H226 lung): 8.69 µM
- TGI (NCI-H226 lung): 17.2 µM
- GI50 (NCI-H23 lung): 10.1 µM
- TGI (NCI-H23 lung): 19.4 µM
- GI50 (NCI-H460 lung): 9.54 µM
- TGI (NCI-H460 lung): 18.9 µM
- GI50 (NCI-H522 lung): 8.67 µM
- TGI (NCI-H522 lung): 16.6 µM
- GI50 (OVCAR-3 ovarian): 10.6 µM
- TGI (OVCAR-3 ovarian): 22.7 µM
- GI50 (OVCAR-4 ovarian): 11.8 µM
- TGI (OVCAR-4 ovarian): 28.5 µM
- GI50 (OVCAR-5 ovarian): 8.61 µM
- TGI (OVCAR-5 ovarian): 16 µM
- GI50 (OVCAR-8 ovarian): 9.6 µM
- TGI (OVCAR-8 ovarian): 18 µM
- GI50 (PC-3 prostate): 9.87 µM
- TGI (PC-3 prostate): 20.1 µM
- GI50 (RPMI-8226 leukemia): 15.9 µM
- TGI (RPMI-8226 leukemia): 48.8 µM
- GI50 (RXF 393 renal): 8.4 µM
- TGI (RXF 393 renal): 16 µM
- GI50 (SF-268 CNS): 10.8 µM
- TGI (SF-268 CNS): 25.4 µM
- GI50 (SF-295 CNS): 9.14 µM
- TGI (SF-295 CNS): 18.9 µM
- GI50 (SF-539 CNS): 9.17 µM
- TGI (SF-539 CNS): 17 µM
- GI50 (SK-MEL-2 melanoma): 9.22 µM
- TGI (SK-MEL-2 melanoma): 16.9 µM
- GI50 (SK-MEL-28 melanoma): 8.66 µM
- TGI (SK-MEL-28 melanoma): 16 µM
- GI50 (SK-MEL-5 melanoma): 9.44 µM
- TGI (SK-MEL-5 melanoma): 16.9 µM
- GI50 (SK-OV-3 ovarian): 12.4 µM
- TGI (SK-OV-3 ovarian): 34.4 µM
- GI50 (SN12C renal): 9.05 µM
- TGI (SN12C renal): 16.4 µM
- GI50 (SNB-19 CNS): 10.3 µM
- TGI (SNB-19 CNS): 23.6 µM
- GI50 (SNB-75 CNS): 8.31 µM
- TGI (SNB-75 CNS): 26.9 µM
- GI50 (SR leukemia): 13.5 µM
- TGI (SR leukemia): 32 µM
- GI50 (SW-620 colon): 9.58 µM
- TGI (SW-620 colon): 19.2 µM
- GI50 (T-47D breast): 9.06 µM
- TGI (T-47D breast): 18.2 µM
- GI50 (TK-10 renal): 8.71 µM
- TGI (TK-10 renal): 17 µM
- GI50 (U251 CNS): 9.17 µM
- TGI (U251 CNS): 16.8 µM
- GI50 (UACC-257 melanoma): 8.88 µM
- TGI (UACC-257 melanoma): 16.7 µM
- GI50 (UACC-62 melanoma): 8.63 µM
- TGI (UACC-62 melanoma): 16 µM
- GI50 (UO-31 renal): 8.01 µM
- TGI (UO-31 renal): 15.1 µM
